≈ marks a conversion by molar mass, not a printed value. Starred links: 1 amine or outer side, 2 acyl side, 3 side chain; linkers in the order of their positions; H or OH if unused. Non-standard residues stand in square brackets, D forms with d. Residues, ends and D or L forms follow the SMILES beside them. X7 = CN([C@@H](Cc1cccc(B2OC(C)(C)C(C)(C)O2)c1)C(=O)[*:2])[*:1]; X3 = CN([C@@H](Cc1cccc(-c2ccc(Cl)cc2)c1)C(=O)[*:2])[*:1]; X8 = CN([C@@H](Cc1cccc(-c2ccc(Cl)nc2)c1)C(=O)[*:2])[*:1]; X6 = CN([C@@H](Cc1cccc(-c2ccccc2Cl)c1)C(=O)[*:2])[*:1]; NMePhe(3-Ph) = CN[C@@H](Cc1cccc(-c2ccccc2)c1)C(=O)O; X1 = CC[C@@H](C)[C@@H](O[*:1])C(=O)[*:2]; Hmp(2R,3S) = CC[C@H](C)[C@@H](O)C(=O)O; NMeVal(β-OH) = CN[C@H](C(=O)O)C(C)(C)O; NMeF = CN[C@@H](Cc1ccccc1)C(=O)O; aIle = CC[C@@H](C)[C@H](N)C(=O)O; NMeV = CN[C@H](C(=O)O)C(C)C
Columns and labels:
[1] = Time dependent inhibition of Candida albicans ATCC 38247 membrane inositol phosphorylceramide synthase using ceramide as substrate
[2] = system: Candida albicans; experiment: Antifungal activity against Candida albicans by broth dilution method; type: functional
[3] = system: Aspergillus fumigatus; experiment: Antifungal activity against Aspergillus fumigatus by broth dilution method; type: functional
[4] = Ratio of MIC for Aspergillus fumigatus to MIC for Candida albicans; type: functional

Structure (SMILES) | Ki [1] | MIC [2] | MIC [3] | Ratio [4]
CC[C@@H](C)[C@@H]1NC(=O)[C@@H]2CCCN2C(=O)[C@H](Cc2ccccc2)N(C)C(=O)[C@H](Cc2ccccc2)NC(=O)[C@H](C(C)C)N(C)C(=O)[C@@H]([C@H](C)CC)OC(=O)[C@H](C(C)(C)O)N(C)C(=O)[C@H](CC(C)C)NC(=O)[C@H](C(C)C)N(C)C1=O [AUREOBASIDIN A] (cyclo(F[NMeF]P[aIle][NMeV]L[NMeVal(β-OH)][X1][NMeV])) | 0.2 nM | < 0.05 µg/mL | > 25 µg/mL | –
CC[C@H](C)[C@@H]1NC(=O)[C@@H]2CCCN2C(=O)[C@H](Cc2cccc(-c3ccc(Cl)nc3)c2)N(C)C(=O)[C@H](Cc2ccccc2)NC(=O)[C@H](C(C)C)N(C)C(=O)[C@@H]([C@@H](C)CC)OC(=O)[C@H](C(C)(C)O)N(C)C(=O)[C@H](CC(C)C)NC(=O)[C@H](C(C)C)N(C)C1=O (cyclo(F[X8]PI[NMeV]L[NMeVal(β-OH)][Hmp(2R,3S)][NMeV])) | – | < 0.025 µg/mL | < 1.25 µg/mL | > 10
CC[C@H](C)[C@@H]1NC(=O)[C@@H]2CCCN2C(=O)[C@H](Cc2cccc(-c3ccccc3Cl)c2)N(C)C(=O)[C@H](Cc2ccccc2)NC(=O)[C@H](C(C)C)N(C)C(=O)[C@@H]([C@@H](C)CC)OC(=O)[C@H](C(C)(C)O)N(C)C(=O)[C@H](CC(C)C)NC(=O)[C@H](C(C)C)N(C)C1=O (cyclo(F[X6]PI[NMeV]L[NMeVal(β-OH)][Hmp(2R,3S)][NMeV])) | – | < 0.5 µg/mL | < 1.25 µg/mL | > 10
CC[C@H](C)[C@@H]1NC(=O)[C@@H]2CCCN2C(=O)[C@H](Cc2cccc(-c3ccccc3)c2)N(C)C(=O)[C@H](Cc2ccccc2)NC(=O)[C@H](C(C)C)N(C)C(=O)[C@@H]([C@@H](C)CC)OC(=O)[C@H](C(C)(C)O)N(C)C(=O)[C@H](CC(C)C)NC(=O)[C@H](C(C)C)N(C)C1=O (cyclo(F[NMePhe(3-Ph)]PI[NMeV]L[NMeVal(β-OH)][Hmp(2R,3S)][NMeV])) | – | < 0.05 µg/mL | < 0.94 µg/mL | > 10
CC[C@H](C)[C@@H]1NC(=O)[C@@H]2CCCN2C(=O)[C@H](Cc2cccc(-c3ccc(Cl)cc3)c2)N(C)C(=O)[C@H](Cc2ccccc2)NC(=O)[C@H](C(C)C)N(C)C(=O)[C@@H]([C@@H](C)CC)OC(=O)[C@H](C(C)(C)O)N(C)C(=O)[C@H](CC(C)C)NC(=O)[C@H](C(C)C)N(C)C1=O (cyclo(F[X3]PI[NMeV]L[NMeVal(β-OH)][Hmp(2R,3S)][NMeV])) | – | < 0.5 µg/mL | < 2.5 µg/mL | > 10
CC[C@H](C)[C@@H]1NC(=O)[C@@H]2CCCN2C(=O)[C@H](Cc2cccc(B3OC(C)(C)C(C)(C)O3)c2)N(C)C(=O)[C@H](Cc2ccccc2)NC(=O)[C@H](C(C)C)N(C)C(=O)[C@@H]([C@@H](C)CC)OC(=O)[C@H](C(C)(C)O)N(C)C(=O)[C@H](CC(C)C)NC(=O)[C@H](C(C)C)N(C)C1=O (cyclo(F[X7]PI[NMeV]L[NMeVal(β-OH)][Hmp(2R,3S)][NMeV])) | – | < 0.5 µg/mL | 10 µg/mL (≈ 8.15 µM) | –

Source: ChEMBL document CHEMBL3588806, “Generation of Broad-Spectrum Antifungal Drug Candidates from the Natural Product Compound Aureobasidin A” (ACS Med Chem Lett, 2015)
